Results as given in patent publication US10548319B2, “Compositions and methods for synthetic amphiphile-induced changes in plant root morphology” (The Curators of the University of Missouri, priority 2014, dated 2020).
Read-outs that look alike come from different tables or passages of the source.

Tests used:
[1] = tested on: A. thaliana (Col-0) plant; type: in vivo, Arabidopsis thaliana; details: for Decrease in primary root length: vs PNS
From the text: The effect treating a plant with a composition comprising a synthetic amphiphile on root morphology or other physical characteristics or attributes can be quantitated. For example, a change in primary root length can be determined by measuring the difference, if any, in primary root length of a plant treated with the composition compared to the average of a control sample of plants of the same type grown under identical conditions in the absence of the composition. A change in lateral root density can be determined by comparing the lateral root density of a plant treated with the composition to the average lateral root density of a sample grown under identical conditions in the absence of the composition. Lateral root density can be determined by dividing the number of lateral roots by the length of the primary root. In certain embodiments for any quantitated characteristic or attribute, the average value of the control is the average of a statistically significant population of control plants. For example, in certain illustrative embodiments disclosed herein, three trials of about 20 plants each were used to determine the average of the control.
Illustrative of certain embodiments, approximately 60 plants were grown on PNS media (no additives) and root lengths and the number of lateral roots were recorded for each. The data points were averaged to obtain the following baseline values: primary root length=40.4±3.8 mm and number of lateral roots=6.1±0.8, respectively. The lateral root density was obtained by dividing the number of lateral roots by the length (in mm) of the primary root. The control value was (6.1/[…]=) 0.15.
Test compounds were added to the growth medium as 0.2% by volume DMSO. […]
To make 500 mL PN media, 485 mL doubly distilled (“dd”) H2O was first added to an autoclave beaker. The following salts and nutrients were added to a beaker and mixed well: 5 mL of 250 mM of KPO4 (pH 5.5), 2.5 mL of 1M KNO3, 1 mL of 1M MgSO4, 1 mL of 1M Ca(NO3)2, 0.5 mL of Ferric EDTA (1000× or 49 mM) and 0.5 mL of Micronutrients (1000×). In a 1 L autoclaved bottle, 0.6% (3 g) of bacteriological agar was added, followed by 500 mL solution prepared above. The media was autoclaved using the Liquid-30 program.
PNS plates were used for plating sterile Arabidopsis thaliana (Columbia-0) seeds. A sterile stock of PNS agar was maintained. Sterile sucrose was added to PN media to make PNS media. To make PNS media containing 0.5% sucrose, 5 mL of 50% sucrose (sterile filtered) was added to 500 mL of PN agar and mixed well.
The stored PNS media was liquefied using a water bath and allowed to cool to 55° C. The type of plates, compounds, and concentrations to be used were confirmed while the media cooled. The plates were labeled on the cover and the bottom with all the relevant information. 50 mL sterile centrifuge tubes were used to measure 29,940 μL (29.94 mL) PNS media. A fresh sterile 50 mL tube was used for each plate. The desired amount and concentration of compound was added to the PNS media, mixed by inverting the tube and poured in the plate. Total volume of media and compound in each plate was kept constant at 30 mL. A maximum of 60 μL (0.2% by volume) compound was added per plate. For example: 60 μL of 25 mM compound was added to 29.94 mL PNS media to get final concentration of 50 μM compound in PNS media. Plates were incubated at room temperature for 2 hours before plating seeds on them.
Hands and bench area were washed thoroughly before beginning. Sterilizing solution was prepared in a sterile 15 mL centrifuge tube, by mixing 5 mL of 30% bleach and 5 μL of 10% Triton X-100. A. thaliana Col-0 seeds were added to sterile 1.5 mL micro-centrifuge tube. 500 μL of sterilizing solution (30% bleach+0.01% Triton X-100) was added to the seeds, vortexed for 3 seconds and incubated at room temperature for 8 minutes. After 8 minutes, bleach was removed and 1 mL autoclaved MilliQ water was added. […]

[2] = study of hydraphiles having various chain lengths; cited from earlier work
[3] = Table 2, 20 μM in PNS, no unit in table (method: millimeters)
[4] = Table 2, 50 μM in PNS, no unit in table (method: millimeters)

c1ccc(CN2CCOCCOCCN(CCCCCCCCN3CCOCCOCCN(CCCCCCCCN4CCOCCOCCN(Cc5ccccc5)CCOCCOCC4)CCOCCOCC3)CCOCCOCC2)cc1 [C8 hydraphile (1)]
Primary root length ([1]; hydraphile 20 μM in PNS media): 34 ± 7 mm
Primary root length ([1]; hydraphile 20 μM in PNS media, listed as C8 benzyl hydraphile (compound 1)): 34±7 mm
Decrease in primary root length ([1]; hydraphile 20 μM): 9%
Lateral root density ([1]; hydraphile 20 μM, lateral roots divided by primary root length): 0.15±0.01
Primary root length ([1]; hydraphile 50 μM in PNS media): 31 ± 6 mm
Primary root length ([1]; hydraphile 50 μM in PNS media, listed as C8 benzyl hydraphile (compound 1)): 31±6 mm
Decrease in primary root length ([1]; hydraphile 50 μM): 19%
Lateral root density ([1]; hydraphile 50 μM, lateral roots divided by primary root length): 0.18±0.03
Sodium cation conduction [2]: did not conduct sodium cation efficiently

CCCCCCCCCCN1CCOCCOCCN(CCCCCCCCCC)CCOCCOCC1 [C10 lariat ether, N,N′-Didecyl-4,13-diaza-18-crown-6]
Lateral root density with increasing concentration ([1]; 0 μM to 50 μM, FIG. 7): Linear increase in lateral root density
Lateral root density ([1]; Table 2, 20 μM): 1.14
Number lateral roots ([1]; Table 2, 20 μM): 4
Percent decrease 1° root ([1]; Table 2, 20 μM): 91.4%
Primary root length [1, 3]: 3.5 mm
Lateral root density ([1]; Table 2, 50 μM): 1.75
Number lateral roots ([1]; Table 2, 50 μM): 3.5
Percent decrease 1° root ([1]; Table 2, 50 μM): 95.1%
Primary root length [1, 4]: 2 mm
Change in root morphology ([1]; lariat ether 20 μM): significant change in root morphology

CCCCCCCCCCCCN1CCOCCOCCN(CCCCCCCCCCCC)CCOCCOCC1 [C12 lariat ether]
Lateral root density ([1]; Table 2, 20 μM): 0.17
Number lateral roots ([1]; Table 2, 20 μM): 6
Percent decrease 1° root ([1]; Table 2, 20 μM): 1.3%
Primary root length [1, 3]: 40.1 mm
Lateral root density ([1]; Table 2, 50 μM): 0.15
Number lateral roots ([1]; Table 2, 50 μM): 4.9
Percent decrease 1° root ([1]; Table 2, 50 μM): 11.5%
Primary root length [1, 4]: 35.9 mm
